Measurements reported in patent US12043613B2, “Inhibitors of SARM1” (Disarm Therapeutics, Inc., priority 2020, dated 2024).

Target: T1, SARM1 (ARM-SAM-TIR, full length SARM1) (Homo sapiens, UniProt Q6SZW1)
T1 sequence (Q6SZW1 with tags, fused parts or gaps): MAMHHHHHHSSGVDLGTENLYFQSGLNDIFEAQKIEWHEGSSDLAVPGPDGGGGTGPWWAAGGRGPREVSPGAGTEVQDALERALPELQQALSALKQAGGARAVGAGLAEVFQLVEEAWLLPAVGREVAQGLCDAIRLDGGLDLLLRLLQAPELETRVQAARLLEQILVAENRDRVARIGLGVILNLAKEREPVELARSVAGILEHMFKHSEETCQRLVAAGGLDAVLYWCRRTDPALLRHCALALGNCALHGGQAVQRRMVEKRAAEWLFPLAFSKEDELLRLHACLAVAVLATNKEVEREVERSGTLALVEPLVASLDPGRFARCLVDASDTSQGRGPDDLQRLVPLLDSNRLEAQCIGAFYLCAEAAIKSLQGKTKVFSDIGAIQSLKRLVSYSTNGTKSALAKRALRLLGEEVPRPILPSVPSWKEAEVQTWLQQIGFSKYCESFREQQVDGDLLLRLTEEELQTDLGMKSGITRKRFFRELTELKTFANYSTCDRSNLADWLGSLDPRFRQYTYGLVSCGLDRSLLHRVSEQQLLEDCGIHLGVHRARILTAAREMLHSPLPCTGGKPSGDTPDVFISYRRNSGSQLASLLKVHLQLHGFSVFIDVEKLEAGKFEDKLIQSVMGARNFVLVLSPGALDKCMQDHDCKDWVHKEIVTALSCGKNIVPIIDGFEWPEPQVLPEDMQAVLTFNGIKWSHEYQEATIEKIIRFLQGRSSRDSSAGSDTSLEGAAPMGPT
Assay: not given
Conditions: read-out: SARM1 IC50; ARM-SAM-TIR lysate 5 μg/mL from NRK1-HEK293T cells, 2 h pre-incubation, 5 uM NAD+, 2 hr room temperature

Row | SMILES | IC50 [µM]
1 | O=C1[C@H](Cc2ccc(F)cc2)CCCN1c1cc(-c2ccnnc2)n[nH]1 [I-85*] | < 0.05
2 | O=C1[C@H](Cc2ccc(Cl)c(F)c2)CCCN1c1cc(-c2ccnnc2)n[nH]1 [I-76*] | < 0.05
3 | O=C1[C@H](Cc2ccc(F)nc2)CCCN1c1cc(-c2ccnnc2)n[nH]1 [I-84*] | < 0.05
4 | O=C1[C@H](Cc2ccc(Cl)nc2)CCCN1c1cc(-c2ccnnc2)n[nH]1 [I-77*] | < 0.05

Continued, values first:

Row | IC50 [µM] | SMILES
5 | 0.101 to 0.5 | Cc1c(-c2ccncc2)n[nH]c1N1CCC(Cc2cnc(Cl)c(F)c2)C1=O (single isomer, unassigned) [I-41* (peak 2)]
6 | 0.101 to 0.5 | Cc1c(-c2ccncc2)n[nH]c1N1CCC(Cc2ccc(Cl)nc2)C1=O (single isomer, unassigned) [I-48* (peak 2)]
7 | < 0.05 | O=C1C(Cc2cnc(Cl)c(F)c2)CCN1c1cc(-c2ccncc2)n[nH]1 (single isomer, unassigned) [I-65* (peak 2)]
8 | > 1 | O=C1N(c2nc(-c3ccncc3)n[nH]2)CCC1(F)Cc1ccc(Cl)nc1 (single isomer, unassigned) [I-42* (peak 2)]
9 | < 0.05 | O=C1C(Cc2ccc(Cl)cc2)CCCN1c1cc(-c2ccncc2)n[nH]1 (single isomer, unassigned) [I-19* (peak 2)]
10 | < 0.05 | O=C1C(Cc2ccc(F)c(F)c2)CCN1c1cc(-c2ccncc2)n[nH]1 (single isomer, unassigned) [I-16* (peak 2)]
11 | < 0.05 | O=C1C(Cc2ccc(Cl)cc2)CCCN1c1nnc(-c2ccncc2)[nH]1 (single isomer, unassigned) [I-5* (peak 2)]
12 | 0.051 to 0.1 | N#Cc1ccc(CC2CCN(c3cc(-c4ccncc4)n[nH]3)C2=O)cc1F (single isomer, unassigned) [I-37* (peak 2)]

Target: T1, SARM1 (ARM-SAM-TIR, full length SARM1)
Assay: biochemical
Conditions: SARM1 IC50 (nM), ARM-SAM-TIR lysate 5 μg/mL from NRK1-HEK293T cells, 2 h pre-incubation, 5 uM NAD+, 2 hr room temperature
Experimental: This assay makes use of full length SARM1, which encompasses the ARM, SAM and TIR domains.
Preparation of ARM-SAM-TIR lysate (STL)
NRK1-HEK293T cells were seeded onto 150 cm^2 plates at 20×10^6 cells per plate. The next day, the cells were transfected with 15 g ARM-SAM-TIR expression plasmid, SEQ ID NO: 1.
The cultures were supplemented with 1 mM NR at time of transfection to minimize toxicity from ARM-SAM-TIR overexpression. Forty-eight hours after transfection, cells were harvested, pelleted by centrifugation at 1,000 rpm (Sorvall ST 16R centrifuge, Thermo Fisher), and washed once with cold PBS (0.01 M phosphate buffered saline NaCl 0.138 M; KCl 0.0027 M; pH 7.4). The cells were resuspended in PBS with protease inhibitors (cOmplete™ protease inhibitor cocktail, Roche product #11873580001) and cell lysates were prepared by sonication (Branson Sonifer 450, output=3, 20 episodes of stroke). The lysates were centrifuged (12,000×g for 10 min at 4° C.) to remove cell debris and the supernatants (containing ARM-SAM-TIR protein) were stored at −80° C. for later use in the in vitro ARM-SAM-TIR NADase assay (see below). Protein concentration was determined by the Bicinchoninic (BCA) method and used to normalize lysate concentrations.
ARM-SAM-TIR IC50 assay of Formula I compounds.
The enzymatic assay was performed in a 384-well polypropylene plate in Dulbecco's PBS buffer in a final assay volume of 20 μL. ARM-SAM-TIR lysate with a final concentration of 5 μg/mL was pre-incubated with the respective compound at 1% DMSO final assay concentration over 2h at room temperature. The reaction was initiated by addition of 5 uM final assay concentration of NAD+ as substrate. After a 2 hr room temperature incubation, the reaction was terminated with 40 μL of stop solution of 7.5% trichloroactetic acid in acetonitrile. The NAD+ and ADPR concentrations were analyzed by a RapidFire High Throughput Mass Spectrometry System (Agilent Technologies, Santa Clara, Calif.) using an API4000 triple quadrupole mass spectrometer (AB Sciex Framingham, Mass.).

Row | SMILES | IC50 [nM]
13 | CC1(Cc2ccc(Cl)cc2)CCN(c2nc(-c3ccncc3)n[nH]2)C1=O (centres unmarked) [Compound I-45] | 501 to 1000
14 | O=C1C(Cc2ccc(Cl)nc2)CCCN1c1cc(-c2ccncc2)n[nH]1 (centres unmarked) [Compound I-21] | < 50
15 | O=C1C(Cc2ccc(F)c(F)c2)CCN1c1nnc(-c2ccncc2)[nH]1 (centres unmarked) [Compound I-11] | < 50
16 | N#Cc1ccc(CC2CCCN(c3nc(-c4ccncc4)n[nH]3)C2=O)cc1 (centres unmarked) [Compound I-99] | 101 to 500
17 | O=C1C(Cc2ccc(Cl)cc2)CCN1c1cc(-c2ccncc2)n[nH]1 (centres unmarked) [Compound I-15] | < 50
18 | O=C1C(Cc2ccc(C(F)(F)F)nc2)CCCN1c1nc(-c2ccncc2)n[nH]1 (centres unmarked) [Compound I-97] | 101 to 500
19 | O=C1C(Cc2ccc(Cl)c(F)c2)CCN1c1cc(-c2ccncc2)n[nH]1 (centres unmarked) [Compound I-14] | < 50
20 | O=C1C(Cc2ccc(F)c(F)c2)CCCN1c1cc(-c2ccncc2)n[nH]1 (centres unmarked) [Compound I-22] | < 50
21 | O=C1C(Cc2ccc(Cl)c(F)c2)CCCN1c1nnc(-c2ccncc2)[nH]1 (centres unmarked) [Compound I-10] | < 50
22 | O=C1C(Cc2ccc(Cl)nc2)CCCN1c1[nH]nc(-c2ccncc2)c1F (centres unmarked) [Compound I-31] | 101 to 500

Next, values leading:

Row | IC50 [nM] | SMILES
23 | 101 to 500 | O=C1C(Cc2ccc(Cl)nc2)CCCN1c1cc(-c2ccncc2)n[nH]1 (single isomer, unassigned) [I-21* (peak 1)]
24 | 101 to 500 | N[C@H]1CC(Cc2ccc(Cl)nc2)C(=O)N(c2cc(-c3ccncc3)n[nH]2)C1 (single isomer, unassigned) [I-60* (peak 2)]
25 | 51 to 100 | O=C1C(Cc2ccc(Cl)nc2)CCCN1c1nnc(-c2ccncc2)[nH]1 (single isomer, unassigned) [I-55* (peak 1)]
26 | > 1000 | O=C1C(Cc2ccc(Cl)cc2)OCCN1c1cc(-c2ccncc2)n[nH]1 (single isomer, unassigned) [I-47* (peak 2)]
